Data: ChEMBL document CHEMBL4308867, “Discovery of naldemedine: A potent and orally available opioid receptor antagonist for treatment of opioid-induced adverse effects” (Bioorg Med Chem Lett, 2019)
pKi: −log10 of the molar value.

What was measured:
[1] = Oral bioavailability in rat at 1 mg/kg administered as cassette dose; format: ADME, organism-based; conditions: in vivo
[2] = Stability in plasma (unknown origin) assessed as parent compound remaining after 24 hrs; format: ADME, cell-free; conditions: read-out: Stability
[3] = Cmax in rat brain at 1 mg/kg, po administered as cassette dose; format: ADME, organism-based; set-up: dose 1 mg/kg, route oral
[4] = Brain to blood partition coefficient, Kp of the compound in rat at 1 mg/kg, po administered as cassette dose; format: ADME, organism-based
[5] = Chemical stability of the compound; format: physicochemical
[6] = Stability in human microsomes assessed as parent compound remaining at 0.5 uM measured after 0.5 hrs; format: ADME, Microsome; conditions: read-out: Stability
[7] = Total clearance in rat at 1 mg/kg, po administered as cassette dose; format: ADME, organism-based; conditions: in vivo
Mu-type opioid receptor [8] = molecular target: T1, Mu-type opioid receptor (Homo sapiens, UniProt P35372); assay: Displacement of [3H]-DAMGO from recombinant human mu-opioid receptor expressed in CHOK1 cells; format: cell-based
T1 sequence (P35372 whole entry): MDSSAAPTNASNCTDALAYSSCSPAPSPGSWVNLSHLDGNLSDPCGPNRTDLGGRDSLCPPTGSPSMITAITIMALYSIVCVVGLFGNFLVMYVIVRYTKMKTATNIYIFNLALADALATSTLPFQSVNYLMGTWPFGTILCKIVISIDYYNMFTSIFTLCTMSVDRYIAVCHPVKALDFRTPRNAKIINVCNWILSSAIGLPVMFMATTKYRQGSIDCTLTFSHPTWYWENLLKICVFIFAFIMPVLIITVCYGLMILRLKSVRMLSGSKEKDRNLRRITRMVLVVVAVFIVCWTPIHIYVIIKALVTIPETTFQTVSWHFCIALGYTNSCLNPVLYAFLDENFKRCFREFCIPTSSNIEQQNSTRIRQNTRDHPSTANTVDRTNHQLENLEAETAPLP

[9] = molecular target: T2, Delta-type opioid receptor (Homo sapiens, UniProt P41143); assay: Displacement of [3H]-DADLE from recombinant human delta-opioid receptor expressed in HEK293 cells; format: cell-based
T2 sequence (P41143 whole entry): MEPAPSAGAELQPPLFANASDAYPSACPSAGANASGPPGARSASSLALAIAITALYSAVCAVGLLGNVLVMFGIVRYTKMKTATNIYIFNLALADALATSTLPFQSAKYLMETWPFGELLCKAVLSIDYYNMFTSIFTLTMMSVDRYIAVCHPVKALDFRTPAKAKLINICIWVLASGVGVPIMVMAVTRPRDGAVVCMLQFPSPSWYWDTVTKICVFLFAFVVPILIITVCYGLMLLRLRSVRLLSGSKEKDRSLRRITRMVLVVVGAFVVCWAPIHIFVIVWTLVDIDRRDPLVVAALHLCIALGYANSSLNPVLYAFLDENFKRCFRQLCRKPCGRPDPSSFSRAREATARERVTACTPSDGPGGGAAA

[10] = Stability in rat microsomes assessed as parent compound remaining at 0.5 uM measured after 0.5 hrs; format: ADME, Microsome; conditions: read-out: Stability
[11] = Drug metabolism assessed as formation of 14-O-acyl form and 7-acyl form mixture
Mu-type opioid receptor [12] = molecular target: T1, Mu-type opioid receptor; assay: Antagonist activity at mu-opioid receptor (unknown origin) by [35S]-GTPgammaS binding assay; format: functional
Rattus norvegicus [13] = assay: Selectivity ratio of ED50 for inhibition of morphine-induced analgesia in po dosed rat to ED50 for inhibition of morphine-induced constipation in po dosed rat; format: functional
Rattus norvegicus [14] = species on record: Rattus norvegicus; assay: […]; format: functional; conditions: po
[15] = molecular target: T2, Delta-type opioid receptor; assay: Antagonist activity at delta-opioid receptor (unknown origin) by [35S]-GTPgammaS binding assay; format: functional
Mustela putorius furo = assay: In vivo antagonist activity at mu-opioid receptor in po dosed ferret assessed as inhibition of morphine-induced emesis/vomiting; format: functional
[16] = Selectivity ratio of ED50 for inhibition of morphine-induced analgesia in po dosed rat to ED50 for inhibition of morphine-induced emesis/vomiting in po dosed ferret; format: functional
Rattus norvegicus [17] = assay: Antianalgesic activity in po dosed rat assessed as inhibition of morphine-induced analgesia by tail-flick test; format: functional

SMILES	bioavailability [1] [%]	remaining at 24 h [2] [%]	Cmax [3] [ng/mL]	Kp [4]	Stability [5]	remaining at 0.5 h, 0.5 µM [6] [%]	CL/F [7] [mL/min/kg]	pKi (Mu-type opioid receptor [8])	pKi [9]	remaining at 0.5 h, 0.5 µM [10] [%]	Drug metabolism [11]	Ke (Mu-type opioid receptor [12]) [nM]	Ratio ED50 (Rattus norvegicus [13])	ED50 (Rattus norvegicus [14]) [mg/kg]	Ke [15] [nM]	ED50 (Mustela putorius furo) [mg/kg]	Ratio ED50 [16]	ED50 (Rattus norvegicus [17]) [mg/kg]
O=C(NCc1ccccc1)C1=C(O)[C@@H]2Oc3c(O)ccc4c3[C@@]23CCN(CC2CC2)[C@H](C4)[C@]3(O)C1	46	> 80	12	0.17	Stable	94	61	8.96	7.80	14	–	–	–	–	–	–	–	–
Cc1nc(N)nc2c1C[C@@]1(O)[C@H]3Cc4ccc(O)c5c4[C@@]1(CCN3CC1CC1)[C@H]2O5	42.5	–	4.6	0.31	–	92	220	8.07	8.68	58	–	–	–	–	–	–	–	–
CCC(=O)C1=C(O)[C@@H]2Oc3c(O)ccc4c3[C@@]23CCN(CC2CC2)[C@H](C4)[C@]3(O)C1	6.4	< 20	6.5	1.7	–	85	313	8.85	8.00	46	Metabolite detected	–	–	–	–	–	–	–
Cc1n[nH]c2c1C[C@@]1(O)[C@H]3Cc4ccc(O)c5c4[C@@]1(CCN3CC1CC1)[C@H]2O5	26.9	–	2.2	0.25	–	98	199	7.62	8.92	81	–	–	–	–	–	–	–	–
O=C(Nc1ccc2cc[nH]c2c1)C1=C(O)[C@@H]2Oc3c(O)ccc4c3[C@@]23CCN(CC2CC2)[C@H](C4)[C@]3(O)C1	13	> 80	0.56	0.04	Stable	93	28	8.62	7.72	86	–	–	–	–	–	–	–	–
COC(=O)C1(NC(=O)C2=C(O)[C@@H]3Oc4c(O)ccc5c4[C@@]34CCN(CC3CC3)[C@H](C5)[C@]4(O)C2)CC1	11	> 80	1.3	0.06	Stable	100	30	8.80	8.01	103	–	4.1	>175	0.57	7.6	0.026	>3846	> 100
CC(C)(NC(=O)C1=C(O)[C@@H]2Oc3c(O)ccc4c3[C@@]23CCN(CC2CC2)[C@H](C4)[C@]3(O)C1)C(=O)NS(C)(=O)=O	0.77	> 80	0.018	0.01	Stable	104	15	7.03	8.26	99	–	–	–	–	–	–	–	–
Cc1noc(C(C)(C)NC(=O)C2=C(O)[C@@H]3Oc4c(O)ccc5c4[C@@]34CCN(CC3CC3)[C@H](C5)[C@]4(O)C2)n1	11	> 80	0.29	0.04	Stable	92	29	8.14	8.24	99	–	–	–	–	–	–	–	–
COC(=O)C(C)(C)NC(=O)C1=C(O)[C@@H]2Oc3c(O)ccc4c3[C@@]23CCN(CC2CC2)[C@H](C4)[C@]3(O)C1	68	> 80	5.1	0.08	Stable	101	25	7.78	8.40	103	–	–	–	–	–	–	–	–
CC(=O)C1=C(O)[C@@H]2Oc3c(O)ccc4c3[C@@]23CCN(CC2CC2)[C@H](C4)[C@]3(O)C1	4	< 20	5.8	1.1	–	95	233	9.02	7.51	80	Metabolite detected	–	–	–	–	–	–	–
O=C(O)c1ccc2c3c([nH]c2c1)[C@@H]1Oc2c(O)ccc4c2[C@@]12CCN(CC1CC1)[C@H](C4)[C@]2(O)C3	0.1	–	0.023	0.03	–	98	71.8	7.74	9.21	97	–	–	–	–	–	–	–	–
